Results taken from US20140050805A1, “COMPOSITION, GLUCOSE METABOLISM-IMPROVING AGENT, AND METHOD FOR IMPROVING GLUCOSE METABOLISM” (Lion Corporation, priority 2011, published 2014).

Experiments:
[1] = system: Hyperglycemia model mice (TSOD mouse); test: Blood glucose level in hyperglycemia model mice (TSOD) bred on mixed feed for 5 days; type: in vivo
Description: Mixed feeds of Examples 1 to 3 and Comparative Examples 1 to 4 were prepared by mixing a commercially available feed (trade name: D12450B, product of Research Diet Co.) with Panax notoginseng powder (product of MATSUURA YAKUGYO CO., LTD.) and at least one of Piper longum extract (trade name, LONG PEPPER EXTRACT POWDER MF, composition: 10% by mass of a hot water extract of Piper longum, 90% by mass of dextrin, product of MARUZEN PHARMACEUTICALS CO., LTD.) and vitamin B1 nitrate (product of Wako Pure Chemical Industries, Ltd.) in respective amounts shown in the following Table 1. The above commercially available feed only was used in Comparative Example 4.
Hyperglycemia model mice (TSOD mouse (obtained from Institute for Animal Reproduction), 14 weeks old, 5 mice/group) were given ad libitum each of the mixed feeds of Examples 1 to 3 and Comparative Examples 1 to 4 to breed them for 5 days.
(§1) The blood glucose levels at 10 a.m. were measured by the below-described method, before giving the mixed feed to the hyperglycemia model mice (before the start of breeding with the mixed feed) and after giving the mixed feed to the hyperglycemia model mice for 5 days (after the breeding with the mixed feed). A significance test was performed using the Dunnett's multiple test.
Also, the difference between the blood glucose levels before the start of breeding with the mixed feed and after the breeding with the mixed feed (Δblood glucose level) was calculated using the following calculation formula.
Δ Blood glucose level (mg/dL)=Blood glucose level before the start of breeding with the mixed feed (mg/dL)−Blood glucose level after the breeding with the mixed feed (mg/dL)
(§2) The blood glucose level was measured with a simplified blood glucose level measuring system (trade name: CYCLIC GB SENSOR, product of Sanko Junyaku Co., Ltd.).

[2] = system: Hyperglycemia model mice (KKAy mice); test: Blood glucose level in hyperglycemia model mice (KKAy) bred on high fat diet mixed feed for 5 days; type: in vivo, mouse
Description: as §2
Mixed feeds of Examples 4 to 7 and Comparative Examples 6 to 8 were prepared by mixing a commercially available high fat diet (trade name: Quick Fat, product of CLEA Japan, Inc.) with the acid-treated Panax notoginseng product produced in Production Example 1 and at least one of Piper longum extract (trade name, LONG PEPPER EXTRACT POWDER MF, composition: 10% by mass of a hot water extract of Piper longum, 90% by mass of dextrin, product of MARUZEN PHARMACEUTICALS CO., LTD.) and vitamin B1 nitrate (product of Wako Pure Chemical Industries, Ltd.) in respective amounts shown in the following Table 2. The mixed feed of Example 8 was prepared by using Panax notoginseng powder (product of MATSUURA YAKUGYO CO., LTD.) instead of the acid-treated Panax notoginseng product of Example 4. The above commercially available high fat diet only was used in Comparative Example 5.
Hyperglycemia model mice (KKAy mice (obtained from CLEA Japan, Inc.), 20 weeks old, 5 mice/group) were given ad libitum each of the mixed feeds of Examples 4 to 8 and Comparative Examples 5 to 8 to breed them for 5 days.
as §1, with “in” for “by”, “same manner as in Example 1,” for “below-described method,”

[3] = level before minus level after 5 days of mixed feed

SMILES	Blood glucose levels Before the start of breeding with the mixed feed ([1]; 14 weeks old, 10 a.m., average, baseline before mixed feed)	Δ Blood glucose level [1, 3]	Blood glucose levels After the breeding with the mixed feed ([1]; mixed feed ad libitum for 5 days, 10 a.m., average)	Blood glucose levels Before the start of breeding with the mixed feed ([2]; 20 weeks old, 10 a.m., average, baseline before mixed feed)	Blood glucose levels After the breeding with the mixed feed ([2]; high fat diet mixed feed ad libitum for 5 days, 10 a.m., average)	Δ Blood glucose level [2, 3]
Cc1ncc(C[n+]2csc(CCO)c2C)c(N)n1.O=[N+]([O-])[O-] [compound 2, vitamin B1 nitrate]	389.2 mg/dL	43.9 mg/dL	345.3 mg/dL			
Cc1ncc(C[n+]2csc(CCO)c2C)c(N)n1.O=[N+]([O-])[O-] [compound 8, vitamin B1 nitrate]				551 mg/dL	501 mg/dL	50 mg/dL
